# According to patent publication US11331364B2, “Use for JNK inhibitor molecules for treatment of various diseases” (Xigen Inflammation Ltd., priority 2014, dated 2022):
# Like-named read-outs stand apart in the source and are kept apart here. Square brackets hold non-standard residues; d marks the D form. Peptide text beside a SMILES is read from it.
# What was measured:
# hJNK1 = molecular target: T1, hJNK1 (Homo sapiens, UniProt P45983); test: hJNK1 | IC50
# T1 construct: His; purchased Upstate 14-327
# T1 sequence (P45983 whole entry, looked up): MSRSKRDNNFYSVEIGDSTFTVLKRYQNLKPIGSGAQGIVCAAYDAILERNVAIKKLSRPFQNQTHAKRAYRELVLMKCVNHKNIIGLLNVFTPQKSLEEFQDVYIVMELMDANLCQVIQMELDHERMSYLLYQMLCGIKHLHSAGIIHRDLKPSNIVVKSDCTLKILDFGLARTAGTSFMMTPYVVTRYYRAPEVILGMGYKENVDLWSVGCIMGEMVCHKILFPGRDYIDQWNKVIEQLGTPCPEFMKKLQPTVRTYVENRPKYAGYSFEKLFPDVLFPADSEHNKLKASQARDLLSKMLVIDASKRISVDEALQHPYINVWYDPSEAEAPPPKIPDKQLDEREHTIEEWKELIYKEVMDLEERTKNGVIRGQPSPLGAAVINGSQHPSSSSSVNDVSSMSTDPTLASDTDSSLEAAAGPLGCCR
# Text: (§1) Table printed on a drawing sheet, Fig. 4
# Head of the field: hJNK1 | IC50
# (§2) The patent's description of the figure: FIG. 4: Table illustrating the inhibitory efficacy of several JNK inhibitors according to the present invention, which are fusion proteins of a JNK inhibitory (poly-)peptide sequence and a transporter sequence. Given are the IC50 values in the nM range, the respective standard error of the mean (SEM) and the number of experiments performed (n).
# (§3) First copying reader's note: The sheet prints no unit for IC50 (the description says nM range); decimal commas are used, except for three IC50 cells printed with a point (3820.81, 5340.33, 8130.86).
# Where the first naming reader finds the target: head: hJNK1 | IC50
# hJNK2 = hJNK2 (Homo sapiens, UniProt P45984); test: hJNK2 | IC50
# hJNK2, sequence (P45984 whole entry, looked up): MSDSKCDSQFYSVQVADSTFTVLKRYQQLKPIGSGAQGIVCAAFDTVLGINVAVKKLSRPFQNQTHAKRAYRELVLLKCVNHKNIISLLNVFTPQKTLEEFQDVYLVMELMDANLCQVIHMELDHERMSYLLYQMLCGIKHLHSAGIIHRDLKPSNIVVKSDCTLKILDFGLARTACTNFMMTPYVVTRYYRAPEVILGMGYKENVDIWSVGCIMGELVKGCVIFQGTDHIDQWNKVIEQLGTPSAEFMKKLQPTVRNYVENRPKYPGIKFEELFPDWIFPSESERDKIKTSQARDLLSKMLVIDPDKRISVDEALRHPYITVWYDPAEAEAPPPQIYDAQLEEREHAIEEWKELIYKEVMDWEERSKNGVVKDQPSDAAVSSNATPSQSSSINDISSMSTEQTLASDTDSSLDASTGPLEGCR
# Text: as §1
# Head of the field: hJNK2 | IC50
# as §2, §3
# Where the first naming reader finds the target: head: hJNK2 | IC50
# hJNK3 = hJNK3 (Homo sapiens, UniProt P53779); test: hJNK3 | IC50
# hJNK3, sequence (P53779 whole entry, looked up): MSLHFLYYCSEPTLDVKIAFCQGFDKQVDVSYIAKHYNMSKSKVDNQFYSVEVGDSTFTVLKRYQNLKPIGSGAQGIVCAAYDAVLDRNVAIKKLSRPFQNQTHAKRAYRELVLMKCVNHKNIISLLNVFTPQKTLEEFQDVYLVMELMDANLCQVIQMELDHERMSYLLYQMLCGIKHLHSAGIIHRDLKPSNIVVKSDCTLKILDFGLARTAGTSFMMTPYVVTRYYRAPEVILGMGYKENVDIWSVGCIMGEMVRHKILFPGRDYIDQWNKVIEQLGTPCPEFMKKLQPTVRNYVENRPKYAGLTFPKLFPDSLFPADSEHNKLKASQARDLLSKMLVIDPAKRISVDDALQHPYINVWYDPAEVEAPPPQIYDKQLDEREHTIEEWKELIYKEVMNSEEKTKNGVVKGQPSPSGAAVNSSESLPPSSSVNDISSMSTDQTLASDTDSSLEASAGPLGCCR
# Text: as §1
# Head of the field: hJNK3 | IC50
# as §2, §3
# Where the first naming reader finds the target: head: hJNK3 | IC50
Structure (SMILES),IC50 (hJNK1; read-out: hJNK1 | IC50) [nM],IC50 (hJNK2; read-out: hJNK2 | IC50) [nM],IC50 (hJNK3; read-out: hJNK3 | IC50) [nM],IC50 (hJNK1) [nM],IC50 (hJNK2) [nM],IC50 (hJNK3) [nM]
"CC(C)C[C@H](NC(=O)[C@H](C)NC(=O)[C@H](CCCCN)NC(=O)[C@H](CCCNC(=N)N)NC(=O)[C@@H](CCCNC(=N)N)NC(=O)[C@H](CCCNC(=N)N)NC(=O)[C@H](CCCNC(=N)N)NC(=O)[C@H](CCC(N)=O)NC(=O)[C@@H](CCCNC(=N)N)NC(=O)[C@H](CCCNC(=N)N)NC(=O)[C@H](CCCCN)NC(=O)[C@H](CCCCN)NC(=O)[C@H](N)CCCNC(=N)N)C(=O)N[C@H](CCCNC(=N)N)C(=O)N[C@@H](CC(C)C)C(=O)N[C@H](Cc1ccccc1)C(N)=O [SEQ ID NO: 190, rKKRrQRRrRKALrLf] (H-[dR]KKR[dR]QRR[dR]RKAL[dR]L[dF]-NH2)",8970,148,159,,,
"CC(C)C[C@H](NC(=O)[C@H](CC(N)=O)NC(=O)[C@H](CC(C)C)NC(=O)[C@@H](NC(=O)[C@@H](NC(=O)[C@@H]1CCCN1C(=O)[C@H](CCCNC(=N)N)NC(=O)[C@@H](CCCNC(=N)N)NC(=O)[C@H](CCCNC(=N)N)NC(=O)[C@H](CCC(N)=O)NC(=O)[C@@H](CCCNC(=N)N)NC(=O)[C@H](CCCNC(=N)N)NC(=O)[C@H](CCCCN)NC(=O)[C@H](CCCCN)NC(=O)[C@H](N)CCCNC(=N)N)[C@@H](C)O)[C@@H](C)O)C(=O)N[C@H](Cc1ccccc1)C(N)=O [SEQ ID NO: 175, rKKRrQRrRPTTLNLf] (H-[dR]KKR[dR]QR[dR]RPTTLNL[dF]-NH2)",185,82.3,60.6,,,
CC(C)C[C@H](NC(=O)[C@H](CC(N)=O)NC(=O)[C@H](CC(C)C)NC(=O)[C@@H](NC(=O)[C@@H](NC(=O)[C@@H]1CCCN1C(=O)[C@H](CCCNC(=N)N)NC(=O)[C@H](CCCCN)NC(=O)[C@@H]1CCCN1C(=O)[C@@H]1CCCN1C(=O)[C@H](CCCNC(=N)N)NC(=O)[C@H](CCCNC(=N)N)NC(=O)[C@H](CCCNC(=N)N)NC(=O)[C@H](CCC(N)=O)NC(=O)[C@H](CCCNC(=N)N)NC(=O)[C@H](CCCNC(=N)N)NC(=O)[C@H](CCCCN)NC(=O)[C@H](CCCCN)NC(=O)[C@H](CCCNC(=N)N)NC(=O)CN)[C@@H](C)O)[C@@H](C)O)C(=O)N[C@@H](Cc1ccccc1)C(=O)N1CCC[C@H]1C(=O)N[C@@H](CCC(N)=O)C(=O)N[C@H](C(=O)N1CCC[C@H]1C(=O)N[C@@H](CCCNC(=N)N)C(=O)N[C@@H](CO)C(=O)N[C@@H](CCC(N)=O)C(=O)N[C@@H](CC(=O)O)C(N)=O)C(C)C [SEQ ID NO: 194] (H-GRKKRRQRRRPPKRPTTLNLFPQVPRSQD-NH2),,,,14,12.7,2.59
"CC(C)C[C@H](NC(=O)[C@H](CC(N)=O)NC(=O)[C@H](CC(C)C)NC(=O)[C@@H](NC(=O)[C@@H](C)NC(=O)[C@@H]1CCCN1C(=O)[C@H](CCCNC(=N)N)NC(=O)[C@@H](CCCNC(=N)N)NC(=O)[C@H](CCCNC(=N)N)NC(=O)[C@H](CCCNC(=N)N)NC(=O)[C@H](CCC(N)=O)NC(=O)[C@@H](CCCNC(=N)N)NC(=O)[C@H](CCCNC(=N)N)NC(=O)[C@H](CCCCN)NC(=O)[C@H](CCCCN)NC(=O)[C@H](N)CCCNC(=N)N)[C@@H](C)O)C(=O)N[C@H](Cc1ccccc1)C(N)=O [SEQ ID NO: 182, rKKRrQRRrRPaTLNLf] (H-[dR]KKR[dR]QRR[dR]RP[dA]TLNL[dF]-NH2)",1680,168,59.4,,,
"CC(C)C[C@H](NC(=O)[C@H](CC(N)=O)NC(=O)[C@H](CC(C)C)NC(=O)[C@@H](NC(=O)[C@@H](NC(=O)[C@@H]1CCCN1C(=O)[C@H](CCCNC(=N)N)NC(=O)[C@@H](CCCCN)NC(=O)[C@@H]1CCCN1C(=O)[C@H](CCCNC(=N)N)NC(=O)[C@@H](CCCNC(=N)N)NC(=O)[C@H](CCCNC(=N)N)NC(=O)[C@H](CCCNC(=N)N)NC(=O)[C@H](CCC(N)=O)NC(=O)[C@@H](CCCNC(=N)N)NC(=O)[C@H](CCCNC(=N)N)NC(=O)[C@H](CCCCN)NC(=O)[C@H](CCCCN)NC(=O)[C@H](N)CCCNC(=N)N)[C@@H](C)O)[C@@H](C)O)C(=O)N[C@H](Cc1c[nH]c2ccccc12)C(N)=O [SEQ ID NO: 176, rKKRrQRRrRPkRPTTLNLw] (H-[dR]KKR[dR]QRR[dR]RP[dK]RPTTLNL[dW]-NH2)",131,40.3,22.4,,,
"C[C@H](NC(=O)[C@H](C)NC(=O)[C@@H](C)NC(=O)[C@H](C)NC(=O)[C@H](C)NC(=O)[C@@H](CCCCN)NC(=O)[C@@H]1CCCN1C(=O)[C@H](CCCNC(=N)N)NC(=O)[C@@H](CCCNC(=N)N)NC(=O)[C@H](CCCNC(=N)N)NC(=O)[C@H](CCCNC(=N)N)NC(=O)[C@H](CCC(N)=O)NC(=O)[C@@H](CCCNC(=N)N)NC(=O)[C@H](CCCNC(=N)N)NC(=O)[C@H](CCCCN)NC(=O)[C@H](CCCCN)NC(=O)[C@H](N)CCCNC(=N)N)C(=O)N[C@@H](CC(N)=O)C(=O)N[C@@H](C)C(=O)N[C@H](Cc1ccccc1)C(N)=O [compound 200, NH2 r K K R r Q R R r R P k A A a A A N A f CONH2] (H-[dR]KKR[dR]QRR[dR]RP[dK]AA[dA]AANA[dF]-NH2)",,,,,3320,

# More lines, main results first:
IC50 (hJNK1; read-out: hJNK1 | IC50) [nM],IC50 (hJNK2; read-out: hJNK2 | IC50) [nM],IC50 (hJNK3; read-out: hJNK3 | IC50) [nM],Structure (SMILES),IC50 (hJNK1) [nM],IC50 (hJNK2) [nM],IC50 (hJNK3) [nM]
2430,206,129,"CC(C)C[C@H](NC(=O)[C@H](CC(N)=O)NC(=O)[C@H](CC(C)C)NC(=O)[C@@H](NC(=O)[C@@H](C)NC(=O)[C@@H]1CCCN1C(=O)[C@H](CCCNC(=N)N)NC(=O)[C@H](CCCCN)NC(=O)[C@@H](CCCNC(=N)N)NC(=O)[C@H](CCCNC(=N)N)NC(=O)[C@H](CCC(N)=O)NC(=O)[C@@H](CCCNC(=N)N)NC(=O)[C@H](CCCNC(=N)N)NC(=O)[C@H](CCCCN)NC(=O)[C@H](CCCCN)NC(=O)[C@H](N)CCCNC(=N)N)[C@@H](C)O)C(=O)N[C@H](Cc1ccccc1)C(N)=O [SEQ ID NO: 184, rKKRrQRrKRPaTLNLf] (H-[dR]KKR[dR]QR[dR]KRP[dA]TLNL[dF]-NH2)",,,
1420,98.1,36.1,CC(C)C[C@H](NC(=O)[C@H](C)NC(=O)[C@H](CCCCN)NC(=O)[C@H](CCCNC(=N)N)NC(=O)[C@H](CCCCN)NC(=O)CNC(=O)[C@@H](CCCNC(=N)N)NC(=O)[C@H](CCCNC(=N)N)NC(=O)[C@H](CCCNC(=N)N)NC(=O)[C@H](CCC(N)=O)NC(=O)[C@@H](CCCNC(=N)N)NC(=O)[C@H](CCCNC(=N)N)NC(=O)[C@H](CCCCN)NC(=O)[C@H](CCCCN)NC(=O)[C@H](N)CCCNC(=N)N)C(=O)N[C@@H](CCCCN)C(=O)N[C@@H](CC(C)C)C(=O)N[C@H](Cc1ccccc1)C(N)=O [SEQ ID NO: 188] (H-[dR]KKR[dR]QRR[dR]GKRKALKL[dF]-NH2),,,
766,72.1,35.5,"CC(C)C[C@H](NC(=O)[C@H](CC(N)=O)NC(=O)[C@H](CC(C)C)NC(=O)[C@@H](NC(=O)[C@@H](CO)NC(=O)[C@@H]1CCCN1C(=O)[C@H](CCCNC(=N)N)NC(=O)[C@@H](CCCCN)NC(=O)[C@@H]1CCCN1C(=O)[C@H](CCCNC(=N)N)NC(=O)[C@@H](CCCNC(=N)N)NC(=O)[C@H](CCCNC(=N)N)NC(=O)[C@H](CCCNC(=N)N)NC(=O)[C@H](CCC(N)=O)NC(=O)[C@@H](CCCNC(=N)N)NC(=O)[C@H](CCCNC(=N)N)NC(=O)[C@H](CCCCN)NC(=O)[C@H](CCCCN)NC(=O)[C@H](N)CCCNC(=N)N)[C@@H](C)O)C(=O)N[C@H](Cc1ccccc1)C(N)=O [SEQ ID NO: 185, rKKRrQRRrRPkRPsTLNLf] (H-[dR]KKR[dR]QRR[dR]RP[dK]RP[dS]TLNL[dF]-NH2)",,,
